# How the values were obtained:
# CDK8/cyclin C = CDK8/cyclin C (Homo sapiens, UniProt P49336); experiment: SelectScreen LanthaScreen Binding; conditions: 1000 nM
# How it was run: (§1)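 Percent effect values derive from SelectScreen Adapta, Lantha and Z-LYTE assays in which 1938 was present at 1 μM, spanning 133 protein kinases and 7 lipid kinases.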
# [1] = biological target: T1, MAP3K7/MAP3K7IP1 (TAK1-TAB1) (Homo sapiens, UniProt O43318); experiment: SelectScreen LanthaScreen Binding; conditions: 1000 nM
# T1 sequence (O43318 with tags, fused parts or gaps limits assumed): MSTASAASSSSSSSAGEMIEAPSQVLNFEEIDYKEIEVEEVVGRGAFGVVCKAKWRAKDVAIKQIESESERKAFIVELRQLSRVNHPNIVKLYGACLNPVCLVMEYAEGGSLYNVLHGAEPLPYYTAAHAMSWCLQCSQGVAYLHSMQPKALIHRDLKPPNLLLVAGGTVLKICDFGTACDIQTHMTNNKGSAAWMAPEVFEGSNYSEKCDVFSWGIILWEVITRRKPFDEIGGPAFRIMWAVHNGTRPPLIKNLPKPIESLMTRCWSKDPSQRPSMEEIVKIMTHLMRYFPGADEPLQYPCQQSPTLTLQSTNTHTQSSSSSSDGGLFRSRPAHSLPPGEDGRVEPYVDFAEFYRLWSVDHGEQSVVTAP
# How it was run: as §1
# CDK8/cyclin C, sequence (P49336 whole entry): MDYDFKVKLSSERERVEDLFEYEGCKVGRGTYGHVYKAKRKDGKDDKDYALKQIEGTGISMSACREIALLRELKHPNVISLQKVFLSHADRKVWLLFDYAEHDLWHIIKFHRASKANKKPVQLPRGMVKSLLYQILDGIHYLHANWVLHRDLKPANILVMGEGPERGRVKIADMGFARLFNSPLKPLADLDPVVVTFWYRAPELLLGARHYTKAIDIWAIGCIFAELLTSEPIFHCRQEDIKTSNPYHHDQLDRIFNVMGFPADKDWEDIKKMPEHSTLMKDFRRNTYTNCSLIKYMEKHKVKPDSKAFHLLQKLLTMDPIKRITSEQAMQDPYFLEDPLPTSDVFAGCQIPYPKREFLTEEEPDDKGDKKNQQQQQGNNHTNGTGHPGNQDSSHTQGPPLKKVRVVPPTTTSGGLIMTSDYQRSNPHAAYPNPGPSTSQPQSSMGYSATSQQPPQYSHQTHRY
# CDK8/cyclin C, sequence (P24863 whole entry partner): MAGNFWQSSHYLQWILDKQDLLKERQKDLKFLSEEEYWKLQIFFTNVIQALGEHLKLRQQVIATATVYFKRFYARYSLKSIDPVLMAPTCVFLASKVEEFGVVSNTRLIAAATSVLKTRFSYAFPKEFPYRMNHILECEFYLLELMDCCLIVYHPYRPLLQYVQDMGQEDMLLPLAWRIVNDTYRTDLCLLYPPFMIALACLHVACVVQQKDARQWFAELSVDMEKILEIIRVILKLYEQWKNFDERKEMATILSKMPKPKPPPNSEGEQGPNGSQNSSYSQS
compound,measurement,setting,value
CCN1CCN(c2ccc(Nc3cc(Nc4cccc5c4N(C(C)=O)CC5)ccn3)cc2)CC1 [Compound 1938],% Displacement Point 1,CDK8/cyclin C,-0.599%
same,% Displacement Point 2,CDK8/cyclin C,0.85%
same,% Displacement mean,CDK8/cyclin C,0.126%
same,% Displacement Point 1,[1],1%
same,% Displacement Point 2,[1],-0.557%
same,% Displacement mean,[1],0.201%

# — paper PMC7614683, “A small molecule PI3Kα activator for cardioprotection and neuroregeneration” (Nature, 2023)
